Experimental data as given in patent US20170071928A1, “METHODS AND PHARMACEUTICAL COMPOSITIONS FOR TREATING DISEASES ASSOCIATED WITH ALTERED SERT ACTIVITY” (THE TRUSTEES OF COLUMBIA UNIVESITY IN THE CITY OF NEW YORK, priority 2014, published 2017).
Read-outs that look alike come from different tables or passages of the source.

Legend:
G56A mice [1] = assay: Small intestinal transit (rhodamine B dextran geometric center) with exogenous 5-HT; assay type: in vivo, mouse; details: G56A mice compared to WT mice (FIG. 2D)
Experimental: For analysis of gastric emptying and small intestinal transit, mice were fasted overnight in cages that lacked bedding. Water was withdrawn 3 hours before the experiment. A solution containing rhodamine B dextran (100 μl; 10 mg/ml in 2% methylcellulose, Invitrogen, Carlsbad, Calif.) was administered to each mouse by gavage through a 21-gauge round-tip feeding needle. Animals were euthanized 15 minutes after gavage; the stomach, small intestine, cecum, and colon were collected in 0.9% NaCl. The small intestine was divided into 10 segments of equal length and the colon (used to obtain total recovered rhodamine B fluorescence) was divided in half. […] Rhodamine fluorescence was measured in 1 ml aliquots of the supernatant (VersaFluor™ Fluorometer; BIO-RAD Laboratories, Hercules, Calif.). The proportion of the Rhodamine B dextran that emptied from the stomach was calculated as [(total recovered fluorescence−fluorescence remaining in the stomach)/(total recovered fluorescence)]×100.
Small intestinal transit was estimated by the position of the geometric center of the Rhodamine B dextran in the small bowel (Miller et al., 1981). For each segment of the small intestine (1-10), the geometric center (a) was calculated as: a=(fluorescence in each segment×number of the segment)/(total fluorescence recovered in the small intestine). […]

[2] = test system: ENCDC isolated from E15 fetal mouse gut; assay: Development/survival of enteric neurons from cultured ENCDC isolated from E15 fetal mouse gut; assay type: cell-based; details: ENCDC culture; for development/survival of total enteric neurons / development/survival of early-born (calretinin) neurons / development/survival of late-born enteric neurons that express TH or GABA / effect on development/survival of late-born neurons compared with total neurons: serum-free media; for development/survival of total enteric neurons: prucalopride 2.5 μM, BIMU-8 2.5 μM; for development/survival of early-born (calretinin) neurons / development/survival of late-born enteric neurons that express TH or GABA / effect on development/survival of late-born neurons compared with total neurons: 2.5 μM
Experimental: Immunocytochemistry was performed as follows: HuC/D, TH, g-aminobutyric acid (GABA), nNOS, and CGRP were located immunocytochemically to determine the abundance of total, dopaminergic, GABAergic, nitrergic and CGRP-expressing enteric neurons in G56A mice and their respective WT littermates. SERT immunoreactivity was also investigated to determine whether or not it is coincident with TH immunoreactivity in the myenteric plexus. In each experimental group, tissue samples were collected from ilea of 6-8 animals, fixed with 4% formaldehyde for 1.5 hours and washed in PBS. Whole mount preparations of longitudinal muscle with attached myenteric plexus (LMMP) were prepared by dissection. Cultured cells were fixed with 4% formaldehyde for 30 minutes and washed in PBS. Preparations were blocked with 10% normal horse serum for 30 minutes at room temp and then incubated for 48 or 72 hours at 4° C. with primary antibodies. Bound primary antibodies were visualized, respectively, with streptavidin-Alexa 594 for mouse monoclonal antibodies, and donkey antibodies to goat, rabbit, or sheep IgG coupled to Alexa 350, 488 or 594 (diluted 1:200; Invitrogen). Preparations were washed with PBS, mounted in buffered glycerol, and examined with a Leica CTR 6000 microscope. Images were obtained with a cooled CCD camera and analyzed with computer assistance (Volocity 5.4 imaging software; Improvision, Waltham, Mass.). To count the numbers of HuC/D-immunoreactive cells in each LMMP preparation, a motorized stage under computer control was used to scan and collect images with a 40× objective covering the entirety of a 10 mm^2 area. To count the numbers of CGRP-, nNOS- and TH-immunoreactive cells a similar procedure was used, except that images were collected with a 20× objective and that an area of 30 mm^2 was scanned. The higher magnification was needed for HuC/D-immunoreactive cells to be certain that overlapping cells could be distinguished. The lower magnification was advantageous for TH-immunoreactive cells, which are widely separated and relatively rare, because the cells were scattered and large numbers could be imaged for statistical reliability. The collected images were processed using a computer running Volocity 5.6 software to determine the numbers of immunoreactive cells of each type, which were presented as cells/mm^2. TH-immunoreactive terminal axons in the myenteric plexus of ileum of four G56A SERT and four WT mice were examined to study the effects of G56A SERT on the density of extrinsic sympathetic terminals. Sympathetic axons are far more abundant that dopaminergic axons in the myenteric plexus. Their large varicosities and coarse structure also distinguish sympathetic from dopaminergic axons. Dopaminergic neurons, moreover, are primarily located in the submucosal plexus. In each preparation, 3 images were obtained with a 40× objective. The total area occupied by TH-immunoreactive terminals in each image was obtained with computer assistance (Volocity 5.6 software; Improvision, Perkin Elmer).
The hypothesis was tested that 5-HT-promoted enteric neurogenesis is 5-HT4-mediated. The responsible receptor was also sought. ENCDC were isolated from E15 fetal mouse gut with antibodies to p75NTR and cultured in serum-free media. […] The 5-HT4 antagonist, GR113808 (1.0 μM), prevented 5-HT, prucalopride, or BIMU-8 from enhancing development/survival of total dopaminergic or GABAergic neurons.

[3] = test system: wild-type adult mice and mice lacking 5-HT4 receptors; details: cited from earlier work
G56A mice [4] = assay: GI motility in mature offspring after prenatal and nursing prucalopride treatment, G56A mice; assay type: in vivo, mouse; details: prucalopride oral in dams' drinking water (24 mg in 350 ml) from early pregnancy until weaning, then stopped
Experimental: (§1) Carmine red, which cannot be absorbed from the lumen of the gut, was used to study total GI transit time (Kimball et al., 2005). A solution of carmine red (300 μl; 6%; Sigma Aldrich, St. Louis, Mo.) suspended in 0.5% methylcellulose (Sigma Aldrich, St. Louis, Mo.) was administered by gavage through a 21-gauge round-tip feeding needle. The time at which gavage took place was recorded as TO. After gavage, fecal pellets were monitored at 10 minutes intervals for the presence of carmine red. Total GI transit time was considered as the interval between TO and the time of first observance of carmine red in stool.
(§2) Colonic motility was studied as previously described (Li et al., 2006). Briefly, the animals were anesthetized with isoflurane (Baxter Pharmaceutical Products Inc, Deerfield, Ill.). A glass bead (3 mm in diameter) was pushed into the colon to a distance of 2 cm from the anal verge. The time required for expulsion of the glass bead was measured and taken as an estimate of colonic motility.
(§3) The dose of prucalopride was 24 mg into 350 ml of water and the mice were assumed to drink about 5 ml/day. After birth, the prucalopride was continued in the drinking water, and was thus delivered to the newborn and suckling pups via breast milk. When the pups were weaned, the prucalopride was stopped; therefore, the exogenous 5-HT4 stimulation was allowed to cease. […]

WT mice = assay: GI motility in mature offspring after prenatal and nursing prucalopride treatment, WT mice; assay type: in vivo, mouse; details: prucalopride treatment of fetal and nursing mice
Experimental: as §1, §2, §3

## NCCc1c[nH]c2ccc(O)cc12 [5-HT, 5-hydroxytryptamine]
G56A mice [1]
  ability to accelerate small intestinal transit: impaired
[2]
  development/survival of total enteric neurons: enhanced the development/survival of total enteric neurons

## CC(C)n1c(=O)n(C(=O)NC2CC3CCC(C2)N3C)c2ccccc21 (stereo not drawn) [BIMU-8]
[2]
  development/survival of early-born (calretinin) neurons: Neither prucalopride nor BIMU-8 enhanced
  development/survival of late-born enteric neurons that express TH or GABA: increased development/survival
  effect on development/survival of late-born neurons compared with total neurons: significantly greater than on total
  development/survival of total enteric neurons: enhanced the development/survival of total enteric neurons

## Cn1cc(C(=O)OCC2CCN(CCNS(C)(=O)=O)CC2)c2ccccc21 [GR113808]
[2]; GR113808 1.0 μM
  antagonism of the enhancement by 5-HT, prucalopride or BIMU-8 of development/survival of total dopaminergic or GABAergic neurons: prevented

## COCCCN1CCC(NC(=O)c2cc(Cl)c(N)c3c2OCC3)CC1 [prucalopride]
[3]; adult mice lacking 5-HT4 receptors
  enteric neurogenesis: not in those lacking 5-HT4 receptors
[3]; wild-type adult mice
  enteric neurogenesis: stimulate enteric neurogenesis
[2]
  development/survival of early-born (calretinin) neurons: Neither prucalopride nor BIMU-8 enhanced
  development/survival of late-born enteric neurons that express TH or GABA: increased development/survival
  effect on development/survival of late-born neurons compared with total neurons: significantly greater than on total
  development/survival of total enteric neurons: enhanced the development/survival of total enteric neurons
G56A mice [4]
  GI motility in offspring at ages 2-3 months: restored to normal
WT mice
  GI motility in the mature animals: not found to exert significant effects
